Assays:
[1] = test system: 6-OHDA unilateral lesion model rats; test: Forepaw adjusting steps (FAS), 6-OHDA induced akinesia; format: in vivo, rat; conditions: first study; acute L-DOPA 3 mg/kg with 15 mg/kg benserazide s.c.
Experimental: Animals: 60 Sprague-Dawley male rats (290 g-340 g, bought from SLAC Laboratory Animal Co. Ltd at an age of 8-10 weeks). Rats were housed in groups of n=2/cage. […] Animal housing and testing rooms were maintained under controlled environmental conditions and were within close proximity of each other. Animal housing rooms were on a 12-hour light-dark cycle with lights on at 6:00 AM and maintained at 70° F./21° C. (range: 68-72° F./20-22° C.) with a humidity range of 20-40%. Testing rooms were maintained at 68-72° F. with a humidity range of 20-40%.
Dopamine (DA)-denervating lesions were performed by unilateral injection of 6-OHDA in the median forebrain bundle containing the ascending nigrostraital pathway. Rats were anesthetized with pentobarbital sodium 40 mg/kg (i.p.) and positioned in a stereotactic frame. 6-OHDA was injected at the following coordinates (in mm) relative to bregma and dural surface: Tooth bar: −3.3 mm, AP: −1.8 mm, ML: −2.0 mm, DV: −8.6 mm (18 μg/6 μl 6-OHDA). […]
After recovery from surgery, rats with nearly complete (>90%) lesions were selected by means of an apomorphin-induced rotation test. […] Quantification of the rotational response was accomplished in rats by counting the turns in 30 minutes. […]
Each baseline adjusting step test consisted of two subtests of the day and the mean of the two subtests were calculated as baseline. […]

[2] = test system: unilaterally 6-OHDA-lesioned rats; test: L-DOPA induced AIMs and drugs screening test (6-OHDA rat model); format: in vivo
Excerpt: Administration of L-DOPA to unilaterally 6-OHDA-lesioned rats induces abnormal involuntary movements (AIMs). These are axial, limb and oral movements that occur only on the body side that is ipsilateral to the lesion.
Animals: 90 experimentally-naïve, male, Sprague-Dawley rats at body weight of 200 to 250 g from Shanghai SLAC Co. Ltd. arrive at the laboratory at least 1 week prior to behavioural testing. Rats are housed in groups of n=2/cage. […] Animal housing and testing rooms are maintained under controlled environmental conditions and are within close proximity of each other. Animal housing rooms are on a 12-hour light-dark cycle with lights on at 6:00 AM and maintained at 70° F./21° C. (range: 68-72° F./20-22° C.) with a humidity range of 20-40%. Testing rooms are maintained at 68-72° F. with a humidity range of 20-40%.
DA-denervating lesions are performed by unilateral injection of 6-OHDA in the ascending nigrostriatal pathway. Rats were anesthetized with pentobarbital sodium 40 mg/kg (i.p.) and positioned in a stereotactic frame. 6-OHDA is injected into the right ascending DA bundle at the following coordinates (in mm) relative to bregma and dural surface: (1) toothbar position −2.3, A=−4.4, L=1.2, V=7.8, (7.5 ug 6-OHDA), (2) toothbar position+3.4, A=−4.0, L=0.8, V=8.0 mm (6 ug 6-OHDA). The neurotoxin injections are performed at a rate of 1 ul/min, and the injection cannula is left in place for an additional 2-3 min thereafter. Two weeks after surgery rats with nearly complete (>90%) lesions are selected by means of an amphetamine-induced rotation test. The animals are placed in plastic Perspex bowls (30 cm in diameter) and the rotational behavior (360° turns) is recorded by an automated rotometer for 90 min after the i.p. injection of 2.5 mg/kg d-amphetamine sulphate. […] Animals are then allocated into two well-matched sub-groups (according to the amphetamine rotation) and receive daily treatment as described below.
L-DOPA methyl ester (Sigma-Aldrich, Germany) is given at the dose of 6 mg/kg/day, combined with 15 mg/kg/day of benserazide HCl (Sigma-Aldrich, Germany). […]

[3] = test system: Parkinson's disease; conditions: doses 10-60 mg/day; cited from earlier work
[4] = test system: Sprague-Dawley (SD) rats; test: Rotarod test (Example V, sedation/motor performance); format: in vivo, rat; conditions: FIG. 2; pentobarbital 15 mg/kg i.p., 30 min before test; positive control
Excerpt: (§1) The present study describes the evaluation of zolmitriptan and buspirone in the 6-OHDA rat model in a study using the rotarod test. Using this study, a treatment with combination of compounds according to the present invention can be evaluated for their sedative effects, and/or their effects on the motor performance compared to sedated rats and to rats which only had saline injections.
In brief, the animals (30 SD male rats (180-220 g, bred in house, originally from SLAC Laboratory Animal Co. Ltd) at 9-week of age) were trained twice a day for a 3-day period. […] Each training trial was ended if the animal fell off or grips the device and spun around for two consecutive revolutions. The time that rat stayed on the Rotarod was recorded. The staying duration recorded at last training trail was used as baseline. Rats were grouped according a randomly distribution of baseline.
For the test session on the fourth day, the rats were evaluated on the Rotarod with the same setting as above at 30 min after dosing. The rats were dosed with drugs as described below. Dosing and Rotarod measurement were conducted by two scientists separately. Pentobarbital (15 mg/kg. i.p.) was used a as a positive control.
(§2) Vehicle: Saline, i.p., 30 min before test, n=10
(§3) Positive control: Pentobarbital 15 mg/kg, i.p. 30 min before test, n=10 […]
The data were analyzed using One-Way ANOVA and the Tukey post-hoc test.

[5] = test system: naïve rats; test: Open field test (Example VI, locomotor activity); format: in vivo, rat; conditions: FIG. 3; pentobarbital 15 mg/kg i.p., 30 min before test; positive control
Excerpt: as §1, with “model.” for “model in a study using the rotarod test.”
The open field test was used to determine the effects of drug on locomotor activity. Rats were put in open-field chambers (dimensions 40 cm×40 cm) 30 minutes after dosing. After a 15 minutes habituation, locomotion were recorded and analysed by Enthovision Video Tracking Software (Noldus Information Technology, Netherlands) for 60 minutes. All locomotor activities were done during dark phase and to eliminate olfactory cues, the arena was thoroughly cleaned with 70% v/v ethanol between each test.
as §2, §3
Statistical analysis: The total locomotor activity is expressed as total moved distance (cm) and average velocity (cm/s) during 60 minutes. The data were analysed using One-Way ANOVA and the Tukey post-hoc test. The locomotor activity in six time point is expressed as moved distance (cm) and average velocity (cm/s) every 10 minutes. The data were analysed using One-Way ANOVA and the Tukey post-hoc test in each time point.

[6] = test system: Huntington's disease; conditions: patient suffering from Huntington's disease; cited from earlier work
[7] = test system: L-DOPA induced dyskinesia; conditions: cited from earlier work

Compound: N[C@@H](Cc1ccc(O)c(O)c1)C(=O)O [L-DOPA, 3,4-dihydroxyphenylalanine]
- 6-OHDA induced akinesia (forelimb use) [1]: alleviated 6-OHDA induced akinesia

Compound: O=C1CC2(CCCC2)CC(=O)N1CCCCN1CCN(c2ncccn2)CC1 [buspirone, 8-[4-(4-pyrimidin-2-ylpiperazin-1-yl)butyl]-8-azaspiro[4.5]decane-7,9-dione]
- L-DOPA induced AIM (Total AIMs) ([2]; Example IV, FIG. 1, buspirone alone 1 mg/kg/day i.p.): only partly reduced AIM
- L-DOPA induced AIM (Total AIMs) ([2]; Example VII, FIG. 4, buspirone alone 0.5 mg/kg i.p.): only partly reduced AIM
- effects on Parkinson's disease or dyskinesia [3]: did not have any effects

Compound: CCCC(C)C1(CC)C(=O)NC(=O)NC1=O (stereo not shown) [pentobarbital]
- rotarod performance (time spent on the accelerating rod) [4]: significantly reduced time spend on the rotarod
- open field test motor performance [5]: significantly reduced motor performance

Compound: O=C1[C@H]2CCCC[C@H]2C(=O)N1CCCCN1CCN(c2nsc3ccccc23)CC1 [perospirone, (3 aR,7aS)-2-{4-[4-(1,2-benzisothiazol-3-yl)piperazin-1-yl]butyl}hexahydro-1H-isoindole-1,3(2H)-dione]
- involuntary movement [6]: could reduce involuntary movement

Compound: Fc1ccc(-c2cncc(CNC[C@H]3CCc4ccccc4O3)c2)cc1 [sarizotan, 1-[(2R)-3,4-dihydro-2H-chromen-2-yl]-N-([5-(4-fluorophenyl)pyridin-3-yl]-methyl)methanamine]
- LID ([7]; phase 2A study and open labeled study): reduced LID
- effects compared to placebo ([7]; several large phase 2b studies): no significant effects

Compound: CN(C)CCc1c[nH]c2ccc(C[C@H]3COC(=O)N3)cc12 [zolmitriptan, (S)-4-([3-[2-(dimethylamino)ethyl]-1H-indol-5-yl]methyl)-1,3-oxazolidin-2-one]
- L-DOPA induced AIM (Total AIMs) ([2]; Example IV, FIG. 1, zolmitriptan alone 10 mg/kg/day): did not reduce AIM

From patent publication US10632116B2, “Combinations of serotonin receptor agonists for treatment of movement disorders” (Contera Pharma A/S, priority 2010, dated 2020)
